Laboratory results: the Deep4Chem optical property database
Each block holds one compound with its values, some of them ahead of it.

Assay: solvent given as SMILES

absorption maximum (in ClC(Cl)Cl): 362 nm
SMILES: COc1ccc2cc(-c3ccc(-c4cc5ccc(OC)cc5oc4=O)cc3)c(=O)oc2c1

absorption maximum (in CC#N): 356 nm
SMILES: CC(C)=CC(=O)c1cc2c(cc1F)NC(C)(C)CC2=O

absorption maximum (in CS(C)=O): 348 nm
SMILES: Cc1cccc(-c2nc3sc4ccccc4c3s2)c1

absorption maximum (in CC#N): 403 nm
SMILES: c1ccc2c(c1)ccc1ncc3ccc4cnccc4c3c12

absorption maximum (in C1CCCCC1): 362 nm
SMILES: CCCC1(CCC)c2cc(-c3ccc4c(c3)C(CCC)(CCC)c3cc(-c5ccc6c(c5)C(CCC)(CCC)c5cc(C(C)(C)CC)ccc5-6)ccc3-4)ccc2-c2ccc(-c3ccc4c(c3)C(CCC)(CCC)c3cc(C(C)(C)CC)ccc3-4)cc21

absorption maximum (in ClCCl): 407 nm
SMILES: CCCCN(CCCC)c1ccc(C#Cc2cc(C#Cc3ccc(C(F)(F)F)cc3)c(C#Cc3ccc(C(F)(F)F)cc3)cc2C#Cc2ccc(N(CCCC)CCCC)cc2)cc1

absorption maximum (in ClC(Cl)Cl): 412 nm
SMILES: c1cc2ccc3sc4ccc5cccc6c(c1)c2c3c4c56

absorption maximum (in C1CCOC1): 362 nm
SMILES: N#Cc1c(N2CCCCC2)cc(-c2ccc3ccccc3c2)c2c1-c1ccccc1C2

absorption maximum (in CC#N): 325 nm
SMILES: CN(C)c1ccc(-c2nc3ccccc3n2-c2ccccc2)cc1

absorption maximum (in CCO): 604 nm | absorption maximum (in ClC(Cl)Cl): 616 nm | absorption maximum (in ClCCl): 615 nm
SMILES: CCC(CC)c1ccc2cc3c([o+]c2c1)/C(=C/Cc1ccccc1)CCC3

absorption maximum (in C1CCCCC1): 427 nm | absorption maximum (in C1CCOC1): 430 nm | absorption maximum (in CC#N): 422 nm | absorption maximum (in CO): 424 nm | absorption maximum (in CS(C)=O): 436 nm | absorption maximum (in ClCCl): 422 nm | absorption maximum (in O): 390 nm
SMILES: CC1=N/C(=C\c2ccccc2N)C(=O)N1C

absorption maximum (in C1CCOC1): 341 nm
SMILES: CC(C)(C)c1ccc(-c2c(-c3ccc(-n4c5ccccc5c5ccccc54)cc3)cc(-c3ccc(-n4c5ccccc5c5ccccc54)cc3)c(-c3ccc(C(C)(C)C)cc3)c2-c2ccc(C(C)(C)C)cc2)cc1

absorption maximum (in CCCCCC): 338 nm | absorption maximum (in CO): 338 nm | absorption maximum (in ClCCl): 341 nm
SMILES: CCCCc1ccc2ccc3cccc4ccc1c2c34

absorption maximum (in CC#N): 379 nm | absorption maximum (in CO): 378 nm | absorption maximum (in ClCCl): 385 nm
SMILES: CCCCCCN(CCCCCC)c1ccc(C#Cc2ccc(C#N)cc2)cc1

absorption maximum (in ClCCl): 389 nm
SMILES: CCCCCCN1C(=O)c2cccc3c(-c4ccc(-c5cc(-c6ccc(C)cc6)nn5-c5ccccc5)s4)ccc(c23)C1=O

absorption maximum (in C1CCOC1): 387 nm
SMILES: O=P1(c2ccccc2)C(c2ccc(C3=Cc4ccccc4P3(=O)c3ccccc3)cc2)=Cc2ccccc21 (stereo not given)

absorption maximum (in ClCCl): 378 nm
SMILES: O=P1(c2ccccc2)c2cccc3c4ccccc4c4ccc1n4c23 (stereo not given)

absorption maximum (in CN(C)C=O): 343 nm
SMILES: Fc1cc(-c2ccc(-c3nc4ccccc4[nH]3)cc2)ccc1-c1ccc(-c2nc3ccccc3[nH]2)cc1

absorption maximum (in ClCCl): 356 nm
SMILES: c1ccc(N(c2ccccc2)c2ccc(-c3ccc4c(c3)C3(c5cc(-c6ccc(N(c7ccccc7)c7ccccc7)cc6)ccc5S4)c4ccccc4-c4ccccc43)cc2)cc1

absorption maximum (in ClCCl): 443 nm
SMILES: COc1ccc2c(c1)CCC1=C(C#Cc3ccccc3)O[B-](F)(F)[O+]=C12

absorption maximum (in ClCCl): 329 nm
SMILES: Cc1cc2c3ccccc3n(C)c2c2c1c1ccccc1n2C

absorption maximum (in C1CCOC1): 331 nm | absorption maximum (in CC#N): 336 nm | absorption maximum (in CS(C)=O): 344 nm | absorption maximum (in ClC(Cl)Cl): 341 nm
SMILES: O=c1oc2ccccc2cc1-c1ccc([N+](=O)[O-])cc1

absorption maximum (in CCO): 367 nm | absorption maximum (in ClCCl): 370 nm
SMILES: O=Cc1ccc(-c2cccc(-c3nc4ccccc4s3)c2O)s1

absorption maximum (in C1CCOC1): 297 nm
SMILES: CC(C)(C)c1ccc(-c2c(-c3cccc(N(c4ccccc4)c4ccccc4)c3)c(C#N)c(-c3cccc(N(c4ccccc4)c4ccccc4)c3)c(-c3ccc(C(C)(C)C)cc3)c2-c2ccc(C(C)(C)C)cc2)cc1

absorption maximum (in ClC(Cl)Cl): 432 nm
SMILES: F[B-]1(F)OC(c2cccc(Br)c2)=Cc2c3ccccc3c3ccccc3[n+]21

absorption maximum (in CO): 569 nm
SMILES: C#CCOc1ccc(/C=C/C2=[N+]3C(=C(c4ccc(N(C)CC)cc4)c4c(C)cc(C)n4[B-]3(F)F)C(C)=C2)cc1

absorption maximum (in CC#N): 353 nm
SMILES: O=C(O)c1ccc(-c2nc(-c3ccccc3)c3c4ccccc4ccn23)cc1

absorption maximum (in ClC(Cl)Cl): 340 nm
SMILES: CCCCCCN1C(=O)c2cccc3cc(/N=C\c4ccc5c(c4)c4ccccc4n5CC)cc(c23)C1=O

absorption maximum (in C1CCCCC1): 342 nm | absorption maximum (in C1CCOC1): 338 nm | absorption maximum (in CC#N): 336 nm | absorption maximum (in CCOC(C)=O): 339 nm | absorption maximum (in CS(C)=O): 334 nm | absorption maximum (in ClC(Cl)Cl): 340 nm
SMILES: N#Cc1cc2ccccc2oc1=O

absorption maximum (in ClCCl): 376 nm
SMILES: c1cc(-c2c3ccccc3c(-c3ccc4ccccc4c3)c3ccccc23)cc(-n2c3ccccc3c3ccccc32)c1

absorption maximum (in C1CCOC1): 830 nm
SMILES: C1=C2c3cc4ccccc4cc3C3=[N+]2[B-]2(Oc4ccccc43)Oc3ccccc3-c3c4cc5ccccc5cc4c1n32 (stereo not given)

Further lines, the compound ahead of its results:

SMILES: Clc1ccc(N2c3c(sc4ccccc34)Sc3sc4ccccc4c32)cc1
absorption maximum (in ClCCl): 309 nm

SMILES: CC(=O)O[B-]1(OC(C)=O)OC(/C=C/C=C/c2ccccc2)=CC(/C=C/C=C/c2ccccc2)=[O+]1
absorption maximum (in C1CCOC1): 468 nm | absorption maximum (in CC#N): 472 nm | absorption maximum (in CC(C)=O): 468 nm | absorption maximum (in CS(C)=O): 478 nm | absorption maximum (in Cc1ccccc1): 470 nm | absorption maximum (in ClC(Cl)Cl): 474 nm | absorption maximum (in ClCCl): 474 nm

SMILES: CCN(CC)c1ccc2cc(-c3nc4ccccc4n3-c3ccccc3)c(=O)oc2c1
absorption maximum (in ClCCl): 410 nm

SMILES: CCOc1ccc2c(-c3nc(-c4ccccc4Cl)no3)cc(=O)oc2c1
absorption maximum (in CCO): 393 nm | absorption maximum (in ClC(Cl)Cl): 394 nm

SMILES: COc1ccc(C2=C(c3ccccc3)C(c3ccccc3)=[N+]3C2=Nc2c(-c4ccc(OC)cc4)c(-c4ccccc4)c(-c4ccccc4)n2[B-]3(F)F)cc1
absorption maximum (in Cc1ccccc1): 656 nm

SMILES: Fc1c(-c2nnc(-c3ccccc3)o2)c(-n2c3ccccc3c3ccccc32)c(F)c(-n2c3ccccc3c3ccccc32)c1-n1c2ccccc2c2ccccc21
absorption maximum (in Cc1ccccc1): 361 nm

SMILES: CCN(CC)c1ccc2cc(-c3nc4cc(C(=O)Nc5cccc(C)c5)ccc4o3)c(=O)oc2c1
absorption maximum (in ClCCl): 440 nm

SMILES: CCN(CC)c1ccc(-c2ccc(-c3nc4ccccc4c(=O)[nH]3)s2)cc1
absorption maximum (in CC#N): 404 nm | absorption maximum (in Cc1ccccc1): 410 nm

SMILES: COc1ccc(-c2cc(-c3ccc(C#N)cc3)nn2C)cc1
absorption maximum (in ClCCl): 281 nm

SMILES: c1cc2c3c(c1)-c1cccc4cccc(c14)B3c1cccc3cccc-2c13
absorption maximum (in Cc1ccccc1): 466 nm

SMILES: COc1cc(OC)cc(-c2ccc(-c3ccc(C#N)s3)s2)c1
absorption maximum (in C1CCCCC1): 360 nm | absorption maximum (in C1COCCO1): 366 nm | absorption maximum (in CC#N): 364 nm | absorption maximum (in CC(C)O): 365 nm | absorption maximum (in CCCCO): 367 nm | absorption maximum (in CCO): 365 nm | absorption maximum (in CCOC(C)=O): 365 nm | absorption maximum (in CN(C)C=O): 370 nm | absorption maximum (in CO): 364 nm | absorption maximum (in CS(C)=O): 372 nm | absorption maximum (in Cc1ccccc1): 366 nm | absorption maximum (in ClC(Cl)Cl): 367 nm | absorption maximum (in ClCCl): 366 nm | absorption maximum (in O): 337 nm

SMILES: CCCCCCCCN(CCCCCCCC)c1ccc(/C=C/c2ccc(C#Cc3ccc(-c4ccc(C#Cc5ccc(/C=C/c6ccc(N(CCCCCCCC)CCCCCCCC)cc6)cc5)cc4)cc3)cc2)cc1
absorption maximum (in Cc1ccccc1): 406 nm

SMILES: CC(C)(C)c1ccc2c(c1)c1cc(C(C)(C)C)ccc1n2-c1ccc(C#Cc2ccccc2)cc1
absorption maximum (in CC#N): 329 nm | absorption maximum (in CCCCC): 329 nm | absorption maximum (in CO): 329 nm | absorption maximum (in Cc1ccccc1): 335 nm | absorption maximum (in ClC(Cl)Cl): 329 nm | absorption maximum (in ClCCl): 334 nm

SMILES: Cc1cc(C)c(B(c2c(C)cc(C)cc2C)c2c(C)cc(-n3c4ccccc4c4cc(N(c5ccccc5)c5ccccc5)ccc43)cc2C)c(C)c1
absorption maximum (in Cc1ccccc1): 375 nm

SMILES: CCC1=C(C)C2C(c3ccc(-c4ccc(-c5nc6c7ccccc7c7ccccc7c6n5-c5ccc(C(C)(C)C)cc5)cc4)cc3)c3c(C)c(CC)c(C)n3[B-](F)(F)[N+]2=C1C (stereo not given)
absorption maximum (in ClC(Cl)Cl): 526 nm

SMILES: CC1(C)c2ccccc2N(c2ccc(-c3ccc(C#N)cn3)cc2)c2ccccc21
absorption maximum (in Cc1ccccc1): 384 nm

SMILES: F[B-]1(F)n2cccc2C(c2ccccc2)=C2C=CC(c3cccc(OC4=[N+]5C(=C(c6ccccc6)c6cc(Br)c(Br)n6[B-]5(F)F)C=C4Br)c3)=[N+]21
absorption maximum (in ClC(Cl)Cl): 556 nm

SMILES: COc1ccc(C2=C3C(C)=CC(C=Cc4ccc(C(=O)OC5C[C@H]6CCC5(C)C6(C)C)cc4)=[N+]3[B-](F)(F)n3c(/C=C/c4ccc(C(=O)OC5CC6CCC5(C)C6(C)C)cc4)cc(C)c32)cc1 (stereo not given in full)
absorption maximum (in Cc1ccccc1): 640 nm

SMILES: CC[N+]1(CC)CN2C(=N1)C(C(=O)O)=Cc1cc(C)ccc12
absorption maximum (in O): 379 nm

SMILES: Cc1ccc(-n2c3ccccc3c3cc(C=C(C#N)C#N)ccc32)cc1
absorption maximum (in C1CCOC1): 407 nm | absorption maximum (in CC#N): 402 nm | absorption maximum (in CC(C)=O): 402 nm | absorption maximum (in CCOC(C)=O): 400 nm | absorption maximum (in CO): 402 nm | absorption maximum (in CS(C)=O): 407 nm | absorption maximum (in Cc1ccccc1): 406 nm | absorption maximum (in ClC(Cl)Cl): 413 nm

SMILES: CNc1cccc2c1C(=O)c1ccccc1-2
absorption maximum (in C1CCCCC1): 432 nm | absorption maximum (in CC#N): 445 nm | absorption maximum (in CCO): 448 nm | absorption maximum (in c1ccccc1): 445 nm

SMILES: CCOC(=O)c1ccc(C2CC(c3cccc4ccccc34)=NN2c2ccc(Cl)cc2)cc1 (stereo not given)
absorption maximum (in ClCCl): 378 nm

SMILES: N#Cc1ccc(C2=CC3=c4cc(-c5ccc(C#N)cc5)c5nc(C(F)(F)C(F)(F)C(F)(F)F)nc6c(-c7ccc(C#N)cc7)cc(c4c65)C4=CC(c5ccc(C#N)cc5)=C5N=C(C(F)(F)C(F)(F)C(F)(F)F)N=C2C5C43)cc1 (stereo not given)
absorption maximum (in C1CCOC1): 492 nm

SMILES: c1cc2cc(c1)c1cccc(c1)c1ccc3ccc4ccc(cc4c3c1)c1cccc(c1)c1cccc2c1
absorption maximum (in Cc1ccccc1): 343 nm

SMILES: COc1ccc(C2=C(c3ccc(OC)cc3)C(C)(C)c3ccc4ccccc4c32)cc1
absorption maximum (in C1CCCCC1): 336 nm

SMILES: CN(C)c1ccc2nc(/C=C/c3cc4c5c(c3)CCCN5CCC4)c(=O)oc2c1
absorption maximum (in C1CCCCC1): 487 nm | absorption maximum (in C1COCCO1): 495.5 nm | absorption maximum (in CC#N): 507.5 nm | absorption maximum (in CC(C)=O): 507 nm | absorption maximum (in CCCCCCC): 483 nm | absorption maximum (in CCO): 513 nm | absorption maximum (in CCOC(C)=O): 501 nm | absorption maximum (in CN(C)C=O): 516 nm | absorption maximum (in CS(C)=O): 522.5 nm | absorption maximum (in Cc1ccccc1): 505.5 nm | absorption maximum (in ClC(Cl)Cl): 517 nm | absorption maximum (in ClCCl): 514.5 nm
